For 15 molecules, IC50 results are on record in patent US11530210B2, “Substituted heteroaromatic pyrazolo-pyridines and their use as GLUN2B receptor modulators” (JANSSEN PHARMACEUTICA NV, priority 2019, dated 2022).

Where a name gives a salt, the structure may show the parent alone.

The target in the test is T1, human GluN1/GluN2B NMDA receptors (Homo sapiens, UniProt Q13224).
T1 construct: expressed in transfected cells
T1 sequence (Q13224 27-1484, other chains not shown): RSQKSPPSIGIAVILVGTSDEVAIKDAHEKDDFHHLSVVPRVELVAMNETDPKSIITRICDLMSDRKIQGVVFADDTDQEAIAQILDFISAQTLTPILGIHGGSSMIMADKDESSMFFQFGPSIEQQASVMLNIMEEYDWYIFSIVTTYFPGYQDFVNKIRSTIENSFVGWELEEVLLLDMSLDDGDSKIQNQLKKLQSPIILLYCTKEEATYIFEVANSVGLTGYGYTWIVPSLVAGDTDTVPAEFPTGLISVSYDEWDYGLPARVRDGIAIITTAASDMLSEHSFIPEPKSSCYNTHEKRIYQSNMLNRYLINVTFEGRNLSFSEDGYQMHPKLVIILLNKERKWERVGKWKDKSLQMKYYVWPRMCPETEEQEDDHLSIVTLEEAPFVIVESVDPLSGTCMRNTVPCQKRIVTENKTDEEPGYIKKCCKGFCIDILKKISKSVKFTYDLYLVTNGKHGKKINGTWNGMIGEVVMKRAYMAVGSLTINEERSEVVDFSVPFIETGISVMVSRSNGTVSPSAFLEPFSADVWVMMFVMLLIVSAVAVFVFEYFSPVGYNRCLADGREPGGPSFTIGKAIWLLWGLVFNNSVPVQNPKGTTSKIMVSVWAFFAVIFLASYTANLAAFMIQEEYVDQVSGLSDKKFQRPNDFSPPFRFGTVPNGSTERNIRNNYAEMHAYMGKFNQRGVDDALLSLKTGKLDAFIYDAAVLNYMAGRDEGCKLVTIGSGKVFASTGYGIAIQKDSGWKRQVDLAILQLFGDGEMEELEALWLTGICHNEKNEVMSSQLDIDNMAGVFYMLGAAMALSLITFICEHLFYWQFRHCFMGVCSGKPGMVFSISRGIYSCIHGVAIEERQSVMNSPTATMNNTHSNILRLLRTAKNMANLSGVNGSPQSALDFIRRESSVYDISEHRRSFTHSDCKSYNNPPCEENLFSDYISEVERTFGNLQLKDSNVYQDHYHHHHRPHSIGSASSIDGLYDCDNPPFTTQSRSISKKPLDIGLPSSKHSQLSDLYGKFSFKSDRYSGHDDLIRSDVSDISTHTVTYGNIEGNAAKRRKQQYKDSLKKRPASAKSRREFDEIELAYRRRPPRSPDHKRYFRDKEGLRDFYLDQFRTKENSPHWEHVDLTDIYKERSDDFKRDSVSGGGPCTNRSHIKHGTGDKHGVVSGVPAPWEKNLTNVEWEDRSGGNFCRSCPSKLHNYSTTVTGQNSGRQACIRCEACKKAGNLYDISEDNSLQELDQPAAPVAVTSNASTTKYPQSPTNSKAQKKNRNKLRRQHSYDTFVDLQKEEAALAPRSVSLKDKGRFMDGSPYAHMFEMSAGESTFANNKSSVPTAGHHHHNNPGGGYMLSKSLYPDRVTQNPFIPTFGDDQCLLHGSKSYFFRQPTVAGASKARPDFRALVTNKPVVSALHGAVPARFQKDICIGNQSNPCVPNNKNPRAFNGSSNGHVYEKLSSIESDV
The test is described as follows: Calcium flux (FLIPR) assay on cloned human NR1/GluN2B ion channels expressed in mammalian cells (standard and HTS variants). Particulars: cells expressing human GluN1/GluN2B, glutamate and glycine co-agonists. It is filed as cell-based. The procedure, abridged:
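Tet-On-induced stable cell line loaded with Calcium 5 dye; compounds applied 5 min (agonist check), then glutamate at ~EC40 plus 10 μM glycine for 5 min. Buffer pH 7.4 with 0.5 mM MgCl2 in dye loading (standard) or 1.5 mM (HTS). FLIPR fluorescence normalized to control wells; (+)MK-801 as antagonist control.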
As for `Cc1cncc(Cn2ncc3ncc(-c4ccc(F)c(C(F)F)c4)cc32)c1` [Example 200, 6-[3-(Difluoromethyl)-4-fluoro-phenyl]-1-[(5-methyl-3-pyridyl)methyl]pyrazolo[4,3-b]pyridine], the half-inhibitory concentration (IC50) was found to be 12 nM.

Take `Cc1nnc(Cn2ncc3ncc(-c4ccc(C(F)(F)F)s4)cc32)o1` [Example 78, 2-Methyl-5-[[6-[5-(trifluoromethyl)-2-thienyl]pyrazolo[4,3-b]pyridin-1-yl]methyl]-1,3,4-oxadiazole]: the IC50 was found to be 143 nM.

With `Cc1cc(Cn2ncc3ncc(-c4ccc(F)cc4)cc32)on1` [Example 42, 5-[[6-(4-Fluorophenyl)pyrazolo[4,3-b]pyridin-1-yl]methyl]-3-methyl-isoxazole], the concentration for half-maximal inhibition (IC50) was found to be 475 nM.

`Cc1noc(Cn2ncc3ncc(-c4cccc(C(F)(F)F)c4)cc32)n1` [Example 84, 3-Methyl-5-[[6-[3-(trifluoromethyl)phenyl]pyrazolo[4,3-b]pyridin-1-yl]methyl]-1,2,4-oxadiazole]: the IC50 is 293 nM.

Regarding `FC(F)(F)c1cccc(-c2cnc3cnn(Cc4ccncn4)c3c2)c1` [Example 6, 1-(Pyrimidin-4-ylmethyl)-6-[3-(trifluoromethyl)phenyl]pyrazolo[4,3-b]pyridine hydrochloride salt], the concentration for half-maximal inhibition (IC50) turned out to be 819 nM.

`N#Cc1cccc(Cn2ncc3ncc(-c4ccc(F)c(OC(F)F)c4)cc32)c1` [Example 29, 3-[[6-[3-(Difluoromethoxy)-4-fluoro-phenyl]pyrazolo[4,3-b]pyridin-1-yl]methyl]benzonitrile]: the IC50 came to 65 nM.

Regarding `Cc1nnc(Cn2nc(F)c3ncc(-c4ccc(F)c(C)c4)cc32)o1` [Example 90, 2-[[3-Fluoro-6-(4-fluoro-3-methyl-phenyl)pyrazolo[4,3-b]pyridin-1-yl]methyl]-5-methyl-1,3,4-oxadiazole], the IC50 stood at 33 nM.

As for `Fc1ccc(-c2cnc3cnn(Cc4ccccn4)c3c2)cc1OC(F)F` [Example 222, 6-[3-(Difluoromethoxy)-4-fluoro-phenyl]-1-(2-pyridylmethyl)pyrazolo[4,3-b]pyridine], the IC50 was determined as 502 nM.

As for `Cc1cccc(-c2cnc3cnn(Cc4cncc(F)c4)c3c2)c1` [Example 146, 1-[(5-Fluoro-3-pyridyl)methyl]-6-(m-tolyl)pyrazolo[4,3-b]pyridine], the 50% inhibitory concentration (IC50) was 9 nM.

Regarding `Fc1ccc(-c2cnc3cnn(Cc4ccno4)c3c2)cc1C(F)F` [Example 50, 5-[[6-[3-(Difluoromethyl)-4-fluoro-phenyl]pyrazolo[4,3-b]pyridin-1-yl]methyl]isoxazole], the IC50 came out at 31 nM.

As to `Cc1nnc(Cn2ncc3ncc(-c4ccc(Cl)c(OC(F)F)c4)cc32)o1` [Example 116, 2-[[6-[4-Chloro-3-(difluoromethoxy)phenyl]pyrazolo[4,3-b]pyridin-1-yl]methyl]-5-methyl-1,3,4-oxadiazole], the IC50 was determined as 283 nM.

Consider `Fc1ccc(-c2cnc3cnn(Cc4ccccn4)c3c2)cc1F` [Example 186, 6-(3,4-Difluorophenyl)-1-(2-pyridylmethyl)pyrazolo[4,3-b]pyridine trifluoroacetate salt], for which the IC50 was found to be 2520 nM.

As for `COc1cncc(Cn2ncc3ncc(-c4ccc(F)c(OC(F)F)c4)cc32)c1` [Example 230, 6-[3-(Difluoromethoxy)-4-fluoro-phenyl]-1-[(5-methoxy-3-pyridyl)methyl]pyrazolo[4,3-b]pyridine], the concentration for half-maximal inhibition (IC50) was 48 nM.

For the molecule `Cc1ncc(Cn2ncc3ncc(-c4ccc(F)c(C(F)F)c4)cc32)o1` [Example 54, 5-[[6-[3-(Difluoromethyl)-4-fluoro-phenyl]pyrazolo[4,3-b]pyridin-1-yl]methyl]-2-methyl-oxazole], the IC50 is 133 nM.

For the molecule `Cc1ccc(Cn2ncc3ncc(-c4ccc(F)c(C(F)F)c4)cc32)nn1` [Example 262, 6-[3-(Difluoromethyl)-4-fluoro-phenyl]-1-[(6-methylpyridazin-3-yl)methyl]pyrazolo[4,3-b]pyridine], the IC50 was found to be 273 nM.
